Source: patent US10837001B2, “Cardiomyocyte maturation platform” (The Regents of the University of California, priority 2016, dated 2020)

Key:
[1] = tested on: iPSC-derived CM; conditions: endothelial cells/cardiomyocyte co-culture; cited from earlier work
[2] = tested on: iPSC-derived CM; assay: qPCR of maturation markers with EC-conditioned medium / EC co-culture and ET or notch inhibition; format: cell-based, human; conditions: 20 μM, EC and CM co-cultured, 7 days
Protocol: EC and iPSC-derived CMs were plated onto Matrigel Growth Factor Reduced (BD) coated dishes. Cells were fed with RPMI media supplemented with B27 (Life Technologies) and Endothelial Cell Growth Supplement (ECGS; BD Biosciences) every 2-3 days. EC-conditioned medium was collected after 1-3 days of EC growth. Endothelin inhibition was achieved by adding 10 nM PD145065 inhibitor (EMD Millipore) and notch inhibition with 20 μM DAPT (Sigma) at every media change. Cells were fed on days 1 and 4 and then harvested after 7 days.
RNA was extracted using TRIzol (Life Technologies) according to manufacturer's instructions. Three micrograms of RNA was used to generate cDNA using the iSCRIPT cDNA Synthesis Kit (Bio-Rad). The reaction mix included SYBR green chemistry and primers generated by IDT Technologies. The samples were analyzed using an iQ5 Real Time PCR Detection System (Bio-Rad). The control sample, compared to EC/iPSC-derived CM co-culture, consisted of a mix of equal parts EC and iPSC-derived CM RNA that were isolated separately. (n=3; *p<0.05 **p<0.01 ***p<0.001, Student's t-test)

[3] = tested on: iPSC-derived cardiomyocytes; assay: Pharmacological treatment of iPSC-derived cardiomyocytes (beat rate, calcium transient); format: cell-based, human
Protocol: The iPSC-derived cardiomyocytes have been engineered to express a calcium indicator (GCaMP6f reporter) that emits fluorescence in the presence of cytosolic calcium. Calcium transients were measured using an epifluorescent microscope with an inverted 10× objective (IX70 Olympus, Tokyo, Japan). Images were captured using a SPOT Idea 3.0 megapixel color fluorescent camera and SPOT acquisition software (SPOT Imaging Solutions, Sterling Heights, Mich.). The cells were placed in a 37° C. heated stage during imaging. The video was captured at 33 frames/second with 8×8 binning. ImageJ was used to process and extract the temporal fluorescence intensity of the acquired video data. Subsequent data were analyzed using MATLAB software (MathWorks, Torrance, Calif.). A customized algorithm determined the troughs and peaks of each calcium wave and measured the amplitude, max upslope, max downslope, time to 50% decay, and beat rate. Additional measurements included the effect of caffeine on the slope of amplitude change. Baseline and drug recordings were taken before and after 10 min incubation with the drug(s) on the 37° C. stage. All recordings were taken over 1 min. The order of the β-adrenergic drug treatments was baseline, 1 μM isoproterenol (Sigma #16504), and 1 μM Isoproterenol+10 μM Propranolol (Sigma # P0884). The effect of caffeine (Tocris #2793) on calcium signaling was assessed at a final concentration of 20 mM. The video recordings were acquired before and during the addition of caffeine.

Which cTNT expression [1] does the source give for `C[C@H](NC(=O)Cc1cc(F)cc(F)c1)C(=O)N[C@H](C(=O)OC(C)(C)C)c1ccccc1` [DAPT] here?
Its cTNT expression is “decrease”.

And the “Maturation markers Junctin, SERCA2a, CaV1.2” value [2]?
Its value is “decrease”.

With `Cn1c(=O)c2c(ncn2C)n(C)c1=O` [caffeine] as the compound, how does the Calcium release ([3]; 20 mM, 3D culture vs 2D) read?
The Calcium release was “more rapid release of calcium”.

What about the “Time to maximum calcium concentration” value ([3]; 20 mM, 3D culture vs 2D) of the same compound?
The value was “quicker”.

And the “Upslope (velocity of calcium release)” value ([3]; 20 mM, 3D culture vs 2D)?
Its value is “steeper”.

With `CC(C)NCC(O)c1ccc(O)c(O)c1` (centres unmarked) [isoproterenol] as the compound, how does the Beat rate ([3]; 1 μM, 10 min incubation) read?
The Beat rate was “increased their beat rate”.

And the Beat rate ([3]; cells cultured in 3D compared to cells in 2D culture)?
Its Beat rate is “increased beat rate”.

With `CC(C)NCC(O)COc1cccc2ccccc12` (centres unmarked) [propranolol] as the compound, how does the Beat rate ([3]; 10 μM added after 1 μM isoproterenol) read?
Its Beat rate is “decreased to baseline levels”.
